Data as given in patent US10441663B2, “Methods for treating cancer” (Bicycle Therapeutics Limited, priority 2016, dated 2019).
*1 amine or outer side, *2 acyl side, *3 side chain or, on linkers, in order; H or OH if unused. Where a SMILES comes first, the peptide text is derived from it. Bridges are numbered along the chain shown (N, C = ends). [ ]: non-standard residue; d: D form. The star is where a group is joined. X1 = COc1cc2cc(c1Cl)N(C)C(=O)C[C@H](OC(=O)[C@H](C)N(C)C(=O)CCSSC(C)CCC(=O)*)[C@]1(C)O[C@H]1[C@H](C)[C@@H]1C[C@@](O)(NC(=O)O1)[C@H](OC)/C=C/C=C(\C)C2; 1Nal = N[C@@H](Cc1cccc2ccccc12)C(=O)O; TBMB = c1c(C[*:1])cc(C[*:3])cc1C[*:2]; Tle = CC(C)(C)[C@H](N)C(=O)O; βAla = NCCC(=O)O; Sar = CNCC(=O)O

Test system: NCI-H292 xenograft
Assay: In vivo efficacy of BT1718 in NCI-H292 xenograft
Set-up: species or system Mus Musculus; key to Best response at 10 mg/kg: CR complete response; PR partial response
Method: The objective of this study was to evaluate the in vivo anti-tumor efficacy of BT1718in treatment of HT1080, NCI-H292, NCI-H1975, MDA-MB-231, HCC1806, RPMI2650, HCT-15, HT-29 and SNU-16 xenograft in BALB/c nude mice.
The HT1080, NCI-H292, NCI-H1975, MDA-MB-231, HCC1806, RPMI2650, HCT-15, HT-29 and SNU-16 tumor cells were maintained in vitro as a monolayer culture in medium supplemented with 10% heat inactivated fetal bovine serum at 37° C. in an […]. The tumor cells will be routinely subcultured twice weekly by trypsin-EDTA treatment. The cells growing in an exponential growth phase will be harvested and counted for tumor inoculation.
Mouse was inoculated subcutaneously at the right flank with tumor cells for tumor development. The animals were randomized and treatment was started when the average tumor reaches certain volume for the efficacy study, the inoculating cell amounts and starting tumor size were shown as below in Table 9. The test article administration and the animal numbers in each group were shown in the experimental design in Table 10.
All the procedures related to animal handling, care and the treatment in the study were performed according to the guidelines of the Association for Assessment and Accreditation of Laboratory Animal Care (AAALAC). At the time of routine monitoring, the animals were daily checked for any effects of tumor growth and treatments on normal behavior such as mobility, food and water consumption (by looking only), body weight gain/loss (body weights were measured every day), eye/hair matting and any other abnormal effect as stated in the protocol. Death and observed clinical signs were recorded on the basis of the numbers of animals within each subset.
The major endpoint was to see if the tumor growth could be delayed or mice could be cured. Tumor size was measured three times weekly in two dimensions using a caliper, and the volume was expressed in mm^3 using the formula: V=0.5 a×b^2 where a and b are the long and short diameters of the tumor, respectively. The tumor size was then used for calculations of T/C value. The T/C value (in percent) is an indication of antitumor effectiveness; T and C are the mean volumes of the treated and control groups, respectively, on a given day.
TGI was calculated for each group using the formula: TGI (%)=[1−(Ti−T0)/(Vi−V0)]×100; Ti is the average tumor volume of a treatment group on a given day, T0 is the average tumor volume of the treatment group on the day of treatment start, Vi is the average tumor volume of the vehicle control group on the same day with Ti, and V0 is the average tumor volume of the vehicle group on the day of treatment start.
Summary statistics, including mean and the standard error of the mean (SEM), are provided for the tumor volume of each group at each time point.
Statistical analysis of difference in tumor volume among the groups was conducted on the data obtained at the best therapeutic time point after the final dose.
A one-way ANOVA was performed to compare tumor volume among groups, and when a significant F-statistics (a ratio of treatment variance to the error variance) was obtained, comparisons between groups were carried out with Games-Howell test. All data were analyzed using Prism. P<0.05 was considered to be statistically significant.

COc1cc2cc(c1Cl)N(C)C(=O)C[C@H](OC(=O)[C@H](C)N(C)C(=O)CCSSC(C)CCC(=O)NCCC(=O)N(C)CC(=O)N(C)CC(=O)N(C)CC(=O)N(C)CC(=O)N(C)CC(=O)N(C)CC(=O)N(C)CC(=O)N(C)CC(=O)N(C)CC(=O)N(C)CC(=O)N[C@@H](C)C(=O)N[C@H]1CSCc3cc4cc(c3)CSC[C@H](NC(=O)[C@@H](C)NC(=O)[C@H](Cc3cccc5ccccc35)NC(=O)[C@H](CCC(=O)O)NC(=O)[C@H](CC(N)=O)NC(=O)[C@@H](C)NC1=O)C(=O)N[C@@H](CCC(=O)O)C(=O)N[C@@H](CC(=O)O)C(=O)N[C@@H](Cc1ccccc1)C(=O)N[C@@H](Cc1ccc(O)cc1)C(=O)N[C@@H](CC(=O)O)C(=O)N[C@@H](C(C)(C)C)C(=O)N[C@H](C(N)=O)CSC4)[C@]1(C)O[C@H]1[C@H](C)[C@@H]1C[C@@](O)(NC(=O)O1)[C@H](OC)/C=C/C=C(\C)C2 (stereo partly drawn) [BT1718] ({X1-βAla}-[Sar][Sar][Sar][Sar][Sar][Sar][Sar][Sar][Sar][Sar]AC[dA]NE[1Nal][dA]CEDFYD[Tle]C-NH2; linker 12-18-25 via TBMB (inferred))
tumors that failed to respond on resumed treatment (10 mg/kg biw re-treatment): 1/3
tumors with lack of clear tumor growth on re-treatment (10 mg/kg biw re-treatment): 2/3
Body Weight (1 mpk biw, day 0): 22.8 ± 0.7 g
Tumor Volume (1 mpk biw, day 0): 153 ± 9 mm^3
Body Weight (1 mpk biw, day 2): 22.9 ± 0.3 g
Tumor Volume (1 mpk biw, day 2): 215 ± 25 mm^3
Body Weight (1 mpk biw, day 4): 23.4 ± 0.5 g
Tumor Volume (1 mpk biw, day 4): 326 ± 49 mm^3
Body Weight (1 mpk biw, day 7): 23.6 ± 0.6 g
Tumor Volume (1 mpk biw, day 7): 514 ± 54 mm^3
Body Weight (1 mpk biw, day 9): 23.7 ± 0.7 g
Tumor Volume (1 mpk biw, day 9): 669 ± 53 mm^3
Body Weight (1 mpk biw, day 11): 23.4 ± 0.7 g
Tumor Volume (1 mpk biw, day 11): 978 ± 97 mm^3
Body Weight (1 mpk biw, day 14): 23.5 ± 1.0 g
TGI (%) (1 mpk biw, day 14): 20.7%
Tumor Volume (1 mpk biw, day 14): 1174 ± 98 mm^3
Tumor Volume(mm^3) (1 mpk biw, day 14): 1174 ± 98 mm^3
Body Weight (3 mpk biw, day 0): 22.7 ± 0.5 g
Tumor Volume (3 mpk biw, day 0): 151 ± 15 mm^3
Body Weight (3 mpk biw, day 2): 23.5 ± 0.4 g
Tumor Volume (3 mpk biw, day 2): 226 ± 22 mm^3
Body Weight (3 mpk biw, day 4): 23.2 ± 0.7 g
Tumor Volume (3 mpk biw, day 4): 334 ± 65 mm^3
Body Weight (3 mpk biw, day 7): 23.4 ± 0.8 g
Tumor Volume (3 mpk biw, day 7): 443 ± 70 mm^3
Body Weight (3 mpk biw, day 9): 22.9 ± 0.9 g
Tumor Volume (3 mpk biw, day 9): 591 ± 90 mm^3
Body Weight (3 mpk biw, day 11): 22.6 ± 1.0 g
Tumor Volume (3 mpk biw, day 11): 781 ± 178 mm^3
Body Weight (3 mpk biw, day 14): 22.0 ± 1.2 g
TGI (%) (3 mpk biw, day 14): 40.3%
Tumor Volume (3 mpk biw, day 14): 920 ± 258 mm^3
Tumor Volume(mm^3) (3 mpk biw, day 14): 920 ± 258 mm^3
Body Weight (10 mpk biw, day 0): 22.8 ± 0.4 g
Tumor Volume (10 mpk biw, day 0): 153 ± 6 mm^3
Body Weight (10 mpk biw, day 2): 22.1 ± 0.3 g
Tumor Volume (10 mpk biw, day 2): 152 ± 8 mm^3
Body Weight (10 mpk biw, day 4): 21.7 ± 0.3 g
Tumor Volume (10 mpk biw, day 4): 151 ± 32 mm^3
Body Weight (10 mpk biw, day 7): 22.4 ± 0.3 g
Tumor Volume (10 mpk biw, day 7): 159 ± 49 mm^3
Body Weight (10 mpk biw, day 9): 21.8 ± 0.2 g
Tumor Volume (10 mpk biw, day 9): 158 ± 49 mm^3
Body Weight (10 mpk biw, day 11): 21.8 ± 0.2 g
Tumor Volume (10 mpk biw, day 11): 143 ± 52 mm^3
Body Weight (10 mpk biw, day 14): 22.5 ± 0.4 g
TGI (%) (10 mpk biw, day 14): 101.6%
Tumor Volume (10 mpk biw, day 14): 133 ± 44 mm^3
Tumor Volume(mm^3) (10 mpk biw, day 14): 133 ± 44 mm^3
Best response at 10 mg/kg (NCI-H292, 10 mg/kg): CR
Minimally Effective Dose IV BIW (NCI-H292, dose leading to tumor-stasis): <10 mg/kg
dosing suspension until re-growth to 150 mm3 (after 10 mg/kg biw): 2-3 weeks
tumor volume after regression (after 4 weeks 10 mg/kg biw): below 50 mm3
